4 molecules from article PMC9192638, “Compact IF2 allows initiator tRNA accommodation into the P site and gates the ribosome to elongation” (Nature Communications, 2022) can be followed below.

Assay [1] concerns the target T1, IF2 (initiation factor 2) (Pseudomonas aeruginosa, UniProt Q9HV55).
T1 construct: gene infB; full-length; N-terminal 6xHis-SMT3 tag removed by Ulp1; expressed in E. coli BL21(DE3) Star; compact model residues 337-835
The assay is described as follows: cryo-EM structure. The assay is classed as binding. The following applies: pH 7.6, 10 mM MgCl2.

Assay [2] concerns the target T2, initiation factor 2 (IF2) from Pseudomonas aeruginosa (Pseudomonas aeruginosa PAO1, UniProt Q9HV55 1-840).
T2 construct: Translation initiation factor IF2, Pseudomonas aeruginosa PAO1; residues modelled in the maps: 248-332 (N2 sub-domain region, extended IF2) and 337-835 (compact IF2); Co-purifies with GDP; GDPCP was added to the complex, so the sample held IF2-GDP (compact) and IF2-GDPCP (extended); also called PaeIF2; IF2-GDP; source: E. coli BL21 (DE3) Star, purified (HisTrap, Ulp1 cleavage, reverse HisTrap, …)
The assay can be described thus: cryo-EM structure; rotated 70S-IC with extended IF2-GDPCP (structures II-A and II-B); 2 uM 70 S ribosome, 25 uM mRNA, 10 uM fMet-tRNA, 30 uM IF2, 2 mM GDPCP; 10 mM Hepes 7.6, 60 mM NH4Cl, 15 mM KCl, 10 mM MgCl2. Particulars: both partners purified.

T1 sequence (Q9HV55 whole entry, the tested form may be a part): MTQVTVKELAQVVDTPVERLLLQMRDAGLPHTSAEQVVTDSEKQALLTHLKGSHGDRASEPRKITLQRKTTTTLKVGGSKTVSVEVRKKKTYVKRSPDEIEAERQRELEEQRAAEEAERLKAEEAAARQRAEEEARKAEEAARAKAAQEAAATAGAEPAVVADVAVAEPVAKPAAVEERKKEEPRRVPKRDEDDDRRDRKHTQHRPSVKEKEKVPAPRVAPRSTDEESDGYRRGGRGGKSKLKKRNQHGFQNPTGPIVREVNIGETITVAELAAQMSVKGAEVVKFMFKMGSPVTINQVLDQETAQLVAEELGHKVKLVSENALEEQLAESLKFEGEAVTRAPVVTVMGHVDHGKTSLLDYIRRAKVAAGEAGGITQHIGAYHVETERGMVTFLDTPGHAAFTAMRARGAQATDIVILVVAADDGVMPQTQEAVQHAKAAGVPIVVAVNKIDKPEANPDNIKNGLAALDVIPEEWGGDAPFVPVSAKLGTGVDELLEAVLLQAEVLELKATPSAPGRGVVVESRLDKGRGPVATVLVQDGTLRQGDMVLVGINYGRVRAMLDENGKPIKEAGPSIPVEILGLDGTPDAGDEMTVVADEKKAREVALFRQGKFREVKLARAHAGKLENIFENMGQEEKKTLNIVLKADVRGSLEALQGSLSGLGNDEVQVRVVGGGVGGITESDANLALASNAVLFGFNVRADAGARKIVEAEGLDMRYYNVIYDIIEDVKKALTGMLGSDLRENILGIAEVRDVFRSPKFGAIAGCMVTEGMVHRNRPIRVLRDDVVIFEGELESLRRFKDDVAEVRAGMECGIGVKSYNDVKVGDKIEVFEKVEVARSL
T2 sequence (Q9HV55 whole entry): as the sequence (Q9HV55 whole entry, the tested form may be a part) above

For `Nc1nc2c(ncn2[C@@H]2O[C@H](COP(=O)(O)OP(=O)(O)CP(=O)(O)O)[C@@H](O)[C@H]2O)c(=O)[nH]1` [GDPCP, β,γ-methyleneguanosine 5’-triphosphate], the cryo-EM structure entry in assay [1] (extended IF2 on rotated 70S ribosome initiation complex with mRNA and fMet-tRNA, 2 mM GDPCP added, G-domain nucleotide site with Mg2+) was “well-defined density for extended IF2 and GDPCP in the G-domain”. For `Nc1nc2c(ncn2[C@@H]2O[C@H](COP(=O)(O)OP(=O)(O)O)[C@@H](O)[C@H]2O)c(=O)[nH]1` [GDP], the cryo-EM structure entry in assay [1] (compact IF2 on non-rotated 70S ribosome initiation complex with mRNA and fMet-tRNA, GDP co-purified with IF2, G-domain nucleotide site) is on record as “visualizes the GDP nucleotide bound in the G-domain”.

B1: ribosomal protein uL16 (natural protein, UniProt Q9HWE2 1-137, looked up)
chain: MLQPKRTKFRKQMTGHNRGLAHRGSKVSFGEYALKATSRGRLTARQIESARRALTRHVKRGGKIWIRVFPDKPVTKKPLEVRMGKGKGGVEYWVAQIQPGKVLYEIEGVSEELAREAFALAAAKLPLATSFVKRTVM
notes: 50 S ribosomal protein uL16, Pseudomonas aeruginosa PAO1, as part of the 70 S ribosome; Stood in the assay as a subunit of the whole 70 S ribosome with mRNA and fMet-tRNA; source: endogenous, in 70 S ribosomes purified from P. aeruginosa PAO1 (sucrose cushion, sucrose density gradients)
For B1, the binding result in assay [2] is “binds”.

B2: ribosomal protein uL11 (natural protein, UniProt Q9HWC5 1-143, looked up)
chain: MAKKIQAYIKLQVKAGQANPSPPVGPALGQHGVNIMEFCKAFNAKTQGQEPGLPTPVIITVYSDRSFTFETKSTPAAVLLKKAAGITSGSARPNSQKVGTVTRAQLEEIAKTKQADLTAADLDAAVRTIAGSARSMGLNVEGV
notes: 50 S ribosomal protein uL11, Pseudomonas aeruginosa PAO1, as part of the 70 S ribosome; Stood in the assay as a subunit of the whole 70 S ribosome with mRNA and fMet-tRNA; also called uL11-NTD; source: endogenous, in 70 S ribosomes purified from P. aeruginosa PAO1 (sucrose cushion, sucrose density gradients)
Regarding B2, in assay [2], the binding result is listed as “binds”.
